Experimental data reported in PubChem BioAssay AID588628 (NMMLSC, 2011).
Values joined by “and” are separate entries in the source; they are usually repeats but may differ in a detail not shown here. Equal values may be shown once. Active and inactive are the calls of the source.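 The calls were made as follows: active = fitted EC50 of 10 µM or less with% response changing by at least 30 points across doses; inactive = the rest.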

target: GTPase HRas (Homo sapiens) (UniProt P01112); assay: activated H-Ras mutant GTP-binding inhibitors, SAR follow-up, biochemical, multiplex bead flow cytometry, round 2 (AID 588628); details: bead-based flow cytometry, Bodipy-FL-GTP binding, EDTA
Sequence (P01112 whole entry, looked up): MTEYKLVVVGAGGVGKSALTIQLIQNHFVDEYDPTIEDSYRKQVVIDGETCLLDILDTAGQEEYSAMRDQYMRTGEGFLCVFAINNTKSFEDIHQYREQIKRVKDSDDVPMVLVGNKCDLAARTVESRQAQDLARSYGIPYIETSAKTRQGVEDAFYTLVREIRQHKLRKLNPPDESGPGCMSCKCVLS

SMILES	EC50
CC1(C)Cc2c(sc(NC(=S)NC(=O)C3CCCCC3)c2C(=O)O)CO1	585 nM
CC1(C)Cc2c(sc(NC(=S)NC(=O)c3cccs3)c2C(=O)O)CO1	24 nM
CC1(C)Cc2c(sc(NC(=S)NC(=O)c3ccc(F)cc3)c2C(=O)O)CO1	91 nM
COc1cccc(C(=O)NC(=S)Nc2sc3c(c2C(=O)O)CC(C)(C)OC3)c1	205 nM
CC1(C)Cc2c(sc(NC(=S)NC(=O)c3ccccc3F)c2C(=O)O)CO1	283 nM
Cc1cccc(C(=O)NC(=S)Nc2sc3c(c2C(=O)O)CC(C)(C)OC3)c1	854 nM
CC1(C)Cc2c(sc(NC(=S)NC(=O)c3ccc(Br)cc3)c2C(=O)O)CO1	564 nM
Cc1ccc(C(=O)NC(=S)Nc2sc3c(c2C(=O)O)CC(C)(C)OC3)cc1	178 nM
CC1(C)Cc2c(sc(NC(=S)NC(=O)c3ccco3)c2C(=O)O)CO1	65 nM
COc1ccc(C(=O)NC(=S)Nc2sc3c(c2C(=O)O)CC(C)(C)OC3)cc1	276 nM

More lines, now with the values ahead:

EC50	SMILES
85 nM and 207 nM	O=C(NC(=S)Nc1sc2c(c1C(=O)O)CCOC2)c1ccccc1
33 nM	O=C(NC(=S)Nc1sc2c(c1C(=O)O)CC1(CCCC1)OC2)c1ccccc1
824 nM	CC1(C)Cc2c(sc(NC(=O)NC(=O)c3ccccc3)c2C(=O)O)CO1
53 nM	CC1(C)CCc2sc(NC(=S)NC(=O)c3ccccc3)c(C(=O)O)c2C1
379 nM	Cc1ccccc1C(=O)NC(=S)Nc1sc2c(c1C(=O)O)CC(C)(C)OC2
217 nM	CC1Cc2c(sc(NC(=S)NC(=O)c3ccccc3)c2C(=O)O)CO1 (centres undefined)
125 nM	CC(C)(C)C1Cc2c(sc(NC(=S)NC(=O)c3ccccc3)c2C(=O)O)CO1 (centres undefined)
21 nM	CC1(C)Cc2c(sc(NC(=S)NC(=O)c3ccccc3)c2C(=O)O)CO1
1210 nM	CC1(C)Cc2c(sc(NC(=S)NC(=O)c3ccccc3Br)c2C(=O)O)CO1
535 nM	CC1(C)Cc2c(sc(NC(=S)NC(=O)c3cccc(F)c3)c2C(=O)O)CO1
35 nM	CCC1(C)Cc2c(sc(NC(=S)NC(=O)c3ccccc3)c2C(=O)O)CO1 (centres undefined)

same assay, conditions: bead-based flow cytometry, Bodipy-FL-GTP binding, EDTA; at 100 µM (top of the series)

% response (binding remaining)	SMILES
inactive	CC1(C)Cc2c(sc(NC(=S)Nc3ccccc3)c2C(=O)O)CO1
inactive	CC1(C)Cc2c(sc(NC(=S)NC(=O)c3cccc(Br)c3)c2C(=O)O)CO1
inactive	COc1ccccc1C(=O)NC(=S)Nc1sc2c(c1C(=O)O)CC(C)(C)OC2
